Among the data in patent publication US20030162777A1, “Novel N-acylated heterocycles” (Recordati S.A., priority 2001, published 2003) are Ki values, retold here.

Each structure is given as a SMILES string.

The experiment has as its target T1, human 5HT1A-serotonergic receptor (Homo sapiens, UniProt P08908).
T1 construct: expressed in transfected cells; host or cells: HeLa (human cell line), stably transfected; cell membranes used
T1 sequence (P08908 1-422): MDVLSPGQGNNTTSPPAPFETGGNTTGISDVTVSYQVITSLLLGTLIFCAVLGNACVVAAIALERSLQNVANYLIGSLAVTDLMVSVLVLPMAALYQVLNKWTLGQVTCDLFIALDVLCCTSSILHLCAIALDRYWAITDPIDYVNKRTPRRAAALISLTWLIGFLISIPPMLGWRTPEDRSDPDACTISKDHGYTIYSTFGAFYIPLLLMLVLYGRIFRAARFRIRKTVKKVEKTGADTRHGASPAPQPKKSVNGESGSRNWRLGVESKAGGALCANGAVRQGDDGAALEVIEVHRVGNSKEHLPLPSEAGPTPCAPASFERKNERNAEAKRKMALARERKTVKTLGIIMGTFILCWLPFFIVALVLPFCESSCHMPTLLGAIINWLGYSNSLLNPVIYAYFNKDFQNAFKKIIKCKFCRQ
The experiment in a line: Radioligand binding to recombinant 5-HT1A receptors. The following applies: [3H]8-OH-DPAT 1 nM, membranes of HeLa cells with human 5-HT1A receptor; Ki from IC50 by Cheng & Prusoff; read-out: Binding affinity for 5HT1A receptors, Ki. In outline: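 Displacement of 1 nM [3H]8-OH-DPAT (30 min, 30 °C, Tris-HCl pH 7.4 with MgCl2 and pargyline) from recombinant human 5-HT1A in transfected HeLa membranes, stopped by filtration. Specific binding defined against 10 μM 5-HT; IC50 by nonlinear fitting, then Ki by Cheng–Prusoff.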
For orientation: Ki means a dissociation constant, usually derived from enzyme kinetics or from competition with a known ligand. Regarding `O=C(C1CCCCC1)N1c2ccccc2CCC1CN1CCN(c2cccc(Cl)n2)CC1` (stereo not shown) [Example 72A65, 1-(1-Cyclohexanecarbonyl-1,2,3,4-tetrahydroquinolin-2-ylmethyl)-4-(6-chloropyridin-2-yl)piperazine], the Ki amounted to 15.5 nM.
With `O=C(C1CCCCC1)N1c2ccccc2CCC1CN1CCN(c2c(Cl)cncc2Cl)CC1` (stereo not shown) [Example 72A66, 1-(1-Cyclohexanecarbonyl-1,2,3,4-tetrahydroquinolin-2-ylmethyl)-4-(3,5-dichloropyridin-4-yl)piperazine], the Ki was 10.2 nM.
The figure for `O=C(C1CCCCC1)N1c2ccccc2CCC1CN1CCC(c2cccc(Cl)c2)CC1` (stereo not shown) [Example 72A68, 4-(3-Chlorophenyl)-1-(1-cyclohexanecarbonyl-1,2,3,4-tetrahydroquinolin-2-ylmethyl)piperidine] is 38.6 nM.
Consider `O=C(C1CCCCC1)N1c2ccccc2CCC1CN1CCC(c2ccccc2Cl)CC1` (stereo not shown) [Example 72A69, 4-(2-Chlorophenyl)-1-(1-cyclohexanecarbonyl-1,2,3,4-tetrahydroquinolin-2-ylmethyl)piperidine], for which the inhibitory constant (Ki) was 3.9 nM.
With `O=C(C1CCCCC1)N1c2ccccc2CCC1CN1CCC(c2ccccc2C(F)(F)F)CC1` (stereo not shown) [Example 72A81, 1-(1-Cyclohexanecarbonyl-1,2,3,4-tetrahydroquinolin-2-ylmethyl)-4-(2-trifluoromethylphenyl)piperidine] the figure was 25.5 nM; with `CN(CCOc1ccccc1Cl)CC1CCc2ccccc2N1C(=O)C1CCCCC1` (stereo not shown) [Example 72A84, N-(1-Cyclohexanecarbonyl-1,2,3,4-tetrahydroquinolin-2-ylmethyl)-2-(2-chlorophenoxy)ethylmethylamine], 15.7 nM.
The figure for `CN(CCOc1ccccc1OCC(F)(F)F)CC1CCc2ccccc2N1C(=O)C1CCCCC1` (stereo not shown) [Example 72A85, N-(1-Cyclohexanecarbonyl-1,2,3,4-tetrahydroquinolin-2-ylmethyl)-2-[2-(2,2,2-trifluoroethoxy)phenoxy]ethylmethylamine] is 3.6 nM; for `CN(CCOc1cccc2[nH]ccc12)CC1CCc2ccccc2N1C(=O)C1CCCCC1` (stereo not shown) [Example 72A86, N-(1-Cyclohexanecarbonyl-1,2,3,4-tetrahydroquinolin-2-ylmethyl)-2-[4-(1H)-indolyloxy]ethylmethylamine] it is 4.3 nM; for `CN(CCOc1cccc2cccnc12)CC1CCc2ccccc2N1C(=O)C1CCCCC1` (stereo not shown) [Example 72A87, N-(1-Cyclohexanecarbonyl-1,2,3,4-tetrahydroquinolin-2-ylmethyl)-2-(8-quinolyloxy)ethylmethylamine] it is 3.9 nM.
With `O=C(C1CCCCC1)N1c2ccccc2CCC1CN1CCN(c2cc(C(F)(F)F)nc3ccccc23)CC1` (stereo not shown) [Example 72A89, 1-(1-Cyclohexanecarbonyl-1,2,3,4-tetrahydroquinolin-2-ylmethyl)-4-(2-trifluoromethylquinolin-4-yl)piperazine] the figure was 34.7 nM.
Regarding `O=C(C1CCCCC1)N1c2ccccc2CCC1CN1CCN(c2ccccn2)CC1` (stereo not shown) [Example 72A93, 1-(1-Cyclohexanecarbonyl-1,2,3,4-tetrahydroquinolin-2-ylmethyl)-4-(2-pyridyl)piperazine], the Ki amounted to 7.8 nM.
The figure for `O=C(C1CCCCC1)N1c2ccccc2CCC1CN1CCN(c2ccnc3ccccc23)CC1` (stereo not shown) [Example 72A94, 1-(1-Cyclohexanecarbonyl-1,2,3,4-tetrahydroquinolin-2-ylmethyl)-4-(4-quinolyl)piperazine] is 10 nM; for `COc1cc(F)ccc1N1CCN(CC2CCc3cc(C)ccc3N2C(=O)CC2CCCCC2)CC1` (stereo not shown) [Example 73A6, 1-(1-Cyclohexylacetyl-1,2,3,4-tetrahydroquinolin-6-methyl-2-ylmethyl)-4-(4-fluoro-2-methoxyphenyl)piperazine] it is 18.1 nM.
The figure for `COc1cc(F)ccc1N1CCN(CC2CCc3cc(C)ccc3N2C(=O)C2CCCCCC2)CC1` (stereo not shown) [Example 73A13, 1-(1-Cycloheptanecarbonyl-1,2,3,4-tetrahydroquinolin-6-methyl-2-ylmethyl)-4-(4-fluoro-2-methoxyphenyl)piperazine] is 8.1 nM; for `COc1cc(F)ccc1N1CCN(CC2CCc3ccccc3N2C(=O)CC(C)(C)C)CC1` (stereo not shown) [Example 74A1, 1-(3,3-Dimethylbutanoyl-1,2,3,4-tetrahydroquinolin-2-ylmethyl)-4-(4-fluoro-2-methoxyhenyl)piperazine] it is 2 nM.
The figure for `COc1ccc(C(=O)N2c3ccccc3CCC2CN2CCN(c3ccc(F)cc3OC)CC2)cc1` (stereo not shown) [Example 74A5, 1-(4-Fluoro-2-methoxyphenyl)-4-[1-(4-methoxybenzoyl)-1,2,3,4-tetrahydroquinolin-2-ylmethy]piperazine] is 2 nM; for `COc1cc(F)ccc1N1CCN(CC2CCc3ccccc3N2C(=O)Cc2cccs2)CC1` (stereo not shown) [Example 74A8, 1-(4-Fluoro-2-methoxyphenyl)-4-[1-(2-thienylacetyl)-1,2,3,4-tetrahydroquinolin-2-ylmethyl]piperazine] it is 5.9 nM; for `COc1cc(F)ccc1N1CCN(CC2CCc3ccccc3N2C(=O)Cc2ccsc2)CC1` (stereo not shown) [Example 74A9, 1-(4-Fluoro-2-methoxyphenyl)-4-[1-(3-thienylacetyl)-1,2,3,4-tetrahydroquinolin-2-ylmethyl]piperazine] it is 38.3 nM.
Consider `COc1cc(F)ccc1N1CCN(CC2CCc3ccccc3N2C(=O)CC(C)C)CC1` (stereo not shown) [Example 74A, 1-(4-Fluoro-2-methoxyphenyl)-4-[1-(3-methylbutanoyl)-1,2,3,4-tetrahydroquinolin-2-ylmethyl]piperazine], for which the Ki is 17.6 nM.
`O=C(CC1CC1)N1c2ccccc2CCC1CN1CCN(c2nccc3ccccc23)CC1` (stereo not shown) [Example 75A2, 1-[1-(2-Cyclopropylacetyl)-1,2,3,4-tetrahydroquinolin-2-ylmethyl]-4-(1-isoquinolinyl)piperazine]: the Ki is 10.1 nM.
With `O=C(c1ccc[nH]1)N1c2ccccc2CCC1CN1CCN(c2nccc3ccccc23)CC1` (stereo not shown) [Example 75A3, 1-(1-Isoquinolinyl)-4-[1-(2-pyrrolylcarbonyl)-1,2,3,4-tetrahydroquinolin-2-ylmethyl]piperazine] the figure was 14 nM; with `O=C(c1ccco1)N1c2ccccc2CCC1CN1CCN(c2nccc3ccccc23)CC1` (stereo not shown) [Example 75A4, 1-[1-(2-Furancarbonyl)-1,2,3,4-tetrahydroquinolin-2-ylmethyl]-4-(1-isoquinolinyl)piperazine], 14.6 nM.
With `COc1ccc(C(=O)N2c3ccccc3CCC2CN2CCN(c3nccc4ccccc34)CC2)cc1` (stereo not shown) [Example 75A5, 1-(1-Isoquinolinyl)-4-[1-(4-methoxybenzoyl)-1,2,3,4-tetrahydroquinolin-2-ylmethyl]piperazine] the figure was 2.6 nM.
Regarding `N#Cc1ccc(C(=O)N2c3ccccc3CCC2CN2CCN(c3nccc4ccccc34)CC2)cc1` (stereo not shown) [Example 75A6, 1-[1-(4-Cyanobenzoyl)-1,2,3,4-tetrahydroquinolin-2-ylmethyl]-4-(1-isoquinolinyl)piperazine], the Ki was determined as 4.3 nM.
With `CC(=O)N1CCC(C(=O)N2c3ccccc3CCC2CN2CCN(c3nccc4ccccc34)CC2)CC1` (stereo not shown) [Example 75A7, 1-[1-(1-Acetyl-4-piperidinecarbonyl)-1,2,3,4-tetrahydroquinolin-2-ylmethyl]-4-(1-isoquinolinyl)piperazine] the figure was 5.4 nM; with `O=C(Cc1cccs1)N1c2ccccc2CCC1CN1CCN(c2nccc3ccccc23)CC1` (stereo not shown) [Example 75A8, 1-(1-Isoquinolinyl)-4-[1-(2-thienyacetyl)-1,2,3,4-tetrahydroquinolin-2-ylmethyl]piperazine], 17 nM; with `O=C(Cc1ccsc1)N1c2ccccc2CCC1CN1CCN(c2nccc3ccccc23)CC1` (stereo not shown) [Example 75A9, 1-(1-Isoquinolinyl)-4-[1-(3-thienyacetyl)-1,2,3,4-tetrahydroquinolin-2-ylmethyl]piperazine], 16.1 nM.
With `O=C(C1CCC1)N1c2ccccc2CCC1CN1CCN(c2nccc3ccccc23)CC1` (stereo not shown) [Example 75A10, 1-(1-Cyclobutanecarbonyl-1,2,3,4-tetrahydroquinolin-2-ylmethyl)-4-(1-isoquinolinyl)piperazine] the figure was 26.4 nM; with `O=C(CCCOc1ccccc1)N1c2ccccc2CCC1CN1CCN(c2nccc3ccccc23)CC1` (stereo not shown) [Example 75A11, 1-(1-Isoquinolinyl)-4-[1-(4-phenoxybutanoyl)-1,2,3,4-tetrahydroquinolin-2-ylmethyl]piperazine], 17.1 nM.
With `CC(C)(C)NC(=O)N1c2ccccc2CCC1CN1CCN(c2nccc3ccccc23)CC1` (stereo not shown) [Example 75A15, 1-(1-Isoquinolinyl)-4-[1-(1,1-Dimethyethylaminocarbonyl)-1,2,3,4-tetrahydroquinolin-2-ylmethyl]piperazine] the figure was 27.7 nM; with `CC(C)CC(=O)N1c2ccccc2CCC1CN1CCN(c2nccc3ccccc23)CC1` (stereo not shown) [Example 75A, 1-(1-Isoquinolinyl)-4-[1-(3-methylbutanoyl)-1,2,3,4-tetrahydroquinolin-2-ylmethyl]piperazine], 3.2 nM.
